For the experiment, the system named is carrageenan-induced rat tail thrombosis. Description: Carrageenan-induced rat tail thrombosis (black tail rate and length). It counts as in vivo, SD rats. As to conditions: for Black tail rates of rats (%): Aspirin group 7.72 mg/kg intragastric. As for the experimental part:
The carrageenan was weighed and prepared into a carrageenan solution (2%) with a concentration of […] using 0.9% NaCl; rats were weighed and injected with carrageenan subcutaneously at a dose of 80 mg/kg; intragastric administration treatment was performed on a prevention group 5 days in advance; after model making for 30 min, intragastric administration treatment was performed on the remaining four groups other than the prevention group according to relevant doses, and then the rats were placed in a constant temperature environment of (18±2)° C., and free diet and water drinking were provided.
A total of 42 SD rats were randomly selected for thrombus model making by using carrageenan. The physiological activities of the rats were observed. The normal saline was used as a blank control group, and an aspirin group was used as a positive control group. A polypeptide (the earthworm protein peptide containing four anticoagulant active polypeptides, namely Leu-Val-Thr-Leu-Gly-Asn-Glu, Leu-Leu-Ala-Pro-Pro, Leu-Leu-Pro-Ala-Pro and Thr-Val-Ala-Pro-Phe prepared in Embodiment 1) and relevant medicines were dissolved with normal saline, and the intragastric administration dose was operated according to Table 2 below. […] After injection of carrageenan in each experimental group and normal saline group, rats with different degrees of blood stasis and black tail appeared 3 to 14 hours after model making, and gradually expanded to the tail root. The measured data was processed by spss18.0 software. In order to compare the differences between different groups, one-way analysis of variance was used. […] If P was smaller than 0.05, it indicated there was significant difference. […] The test results are shown in Table 3 and Table 4 below and in FIGS. 9 to 23.

Consider `CC(=O)Oc1ccccc1C(=O)O` [Aspirin, aspirin], for which the “Black tail rates of rats (%)” value is, setting by setting: (24 h) 0%; (36 h) 16.7%; (48 h) 16.7%; (56 h) 16.7%; (72 h) 50%; (96 h) 67%. Besides, the “black tail inhibition ratio compared with the normal saline group” value (aspirin group (7.72 mg/kg), after 48 hours, FIG. 9) is recorded as 75.8%. Moreover, where the note is “aspirin group (7.72 mg/kg), after 48 hours, normal saline 100.13 mm”, the “length of tail thrombogenesis (black tail length)” value is 24.24 mm. Where the note is “aspirin group, after 72 hours, FIG. 11”, the “number of rats with obvious black tail signs” value is reported as “three”.
